Data as given in patent US7576212B2, “Thieno[2,3-B] pyridines as potassium channel inhibitors” (Xention Limited, priority 2004, dated 2009).

Experiments:
human Kv1.3 = target: T1, human Kv1.3 (Homo sapiens, UniProt P22001); test: Kv1.3 whole cell patch electrophysiology (AutoPatch / conventional); type: cell-based; conditions: 1 μM compound; cells stably transfected with human Kv1.3; whole cell mode; room temperature
T1 construct: expressed in transfected cells
Protocol: Kv1.3 Autopatch Electrophysiology Method
(§1) Cells stably transfected with cDNA for human Kv1.3 were grown in Dulbecco's Modified Eagle media (DMEM) alpha supplemented with 10% Fetal Calf Serum (FCS), 20 μl/ml penicillin (5000 U/ml) streptomycin (5000 μg/ml), 10 μl/ml [100×] glutamine, and blasticidin (7.5 μg/ml). Compounds were tested on these cells using the AutoPatch technology in whole cell mode.
The external bathing solution contained (in mM): 150 NaCl, 10 KCl, 1 MgCl2, 3 CaCl2, 10 HEPES, pH 7.4 with NaOH. Patch pipettes were filled with an electrode solution of composition (in mM): 100 K-Gluconate, 20 KCl, 1 MgCl2, 1 CaCl2, 10 HEPES, 11 EGTA, 5 ATP-Na2, 2 Glutathione pH 7.2 with KOH.
(§2) Compounds were dissolved in DMSO (100%) and made up in the external bather at a concentration of 1 μM. All experiments were conducted at room temperature (22-24° C.).
(§3) A cell suspension (10 ml), with a density of 100,000 cells/ml, was aliquoted into a 15 ml centrifuge tube and transferred to an incubator (37° C., 5% CO2) for approximately one hour before use. Following 60 min incubation, a tube was taken and centrifuged at 1000 rpm for 4 mins at room temperature. 9.5 ml supernatant was thence discarded, leaving a cell pellet at the bottom of the tube. The pellet was then resuspended using 100 μl of cold (4° C.), filtered (0.22 μm), 0.2% BSA/bather solution (0.02 g BSA/10 ml bather). The bottom of the tube was manually agitated gently until the solution became cloudy with cells. The 100 μl cell resuspension solution was then stored on the bench at 4° C. (using a Peltier-based temperature control device) until used.
(§4) A length of capillary glass (1B150F-4, WPI) was dipped into the cell suspension solution, such that ˜3 cm column of fluid was taken up by capillary action. A Ag/AgCl wire was dropped into the non-dipped end of the capillary also. The outside of the solution-filled end of the capillary was then dried and the capillary was loaded into the AutoPatch™. Borosilicate glass patch pipettes (from 1.5 mm OD, thin-walled filamented, GC150-TF capillary glass, Harvard) were pulled using a DMZ pipette puller (Zeitz Instruments), and were back-filled using the internal pipette solution, being careful that no bubbles remain at the tip or in the body of the pipette. Patch pipettes typically had resistances of 2.3-3.5 MΩ. Once filled, the pipette tip and a proportion of the shaft (˜15mm) were dipped into Sigmacote (Sigma). The recording pipette was then loaded into the AutoPatch™. Automated patch-clamping was initiated by the operator, but thereafter AutoPatch.exe continued the experiment providing that pre-set conditions and criteria were satisfied.
(§5) Whole cell patch-clamp recordings were made using the AutoPatch™ rig, which incorporated an EPC9 or EPC10 amplifier (HEKA, Germany) under control of Pulse software (v8.54 or v8.76, HEKA, Germany), a motion controller with 2 translators (Newport, UK), valve controller (VF1) and a c-level suction device all at room temperature (22-24° C.). This equipment was completely under the control of AutoPatch.exe and operator intervention was only made when there was a requirement to refill the drug reservoirs or to prevent the loss of a cell due to a technical error. Cells with an Rseries greater than 18 MΩ were discounted from the experiment.
(§6) Qualification stages prior to perfusion and drug application ensured that the observed current met the criteria for the experiment. Only those cells with an IK>400 pA were used for experiments. Cells were continuously perfused with external solution at a flow rate of 1.8-2 ml/minute. […] Online analysis of the hKv1.3 current during the application of compounds was performed by the AutoPatch™ software. Voltage-step protocols and analysis of data was performed as described for conventional electrophysiology.
Electrophysiology voltage-step protocols and analysis of data was performed as follows. Data was sampled at 5 kHz, and filtered with a −3 dB bandwidth of 2.5 kHz. […]

human Kv1.5 = target: T2, human Kv1.5 (Homo sapiens, UniProt P22460); test: Kv1.5 whole cell patch electrophysiology (AutoPatch / conventional); type: cell-based; conditions: 1 μM compound; cells stably transfected with human Kv1.5; whole cell mode; room temperature
T2 construct: expressed in transfected cells
Protocol: Kv1.5 Autopatch Electrophysiology Method
as §1, with “Kv1.5 (in pEF6::VA-His-TOPO)” for “Kv1.3”
The external bathing solution contained (in mM): 150 NaCl, 10 KCl, 1 MgCl2, 3 CaCl2, 10 HEPES, pH 7.4 with NaOH. Patch pipettes were filled with an electrode solution of composition (in mM): 160 KCl, 0.5 MgCl2, 10 HEPES, 1 EGTA, pH 7.4 with KOH.
as §2, §3
as §4, with “(˜15 mm)” for “(˜15mm)”
as §5
as §6, with “IK>500” for “IK>400”, “hKv1.5” for “hKv1.3”
Electrophysiology voltage-step protocols and analysis of data was performed as follows. Data was sampled at 5kHz, and filtered with a −3 dB bandwidth of 2.5 kHz.
Cells were held at a voltage of −80 mV. […]

T2 sequence (P22460 whole entry): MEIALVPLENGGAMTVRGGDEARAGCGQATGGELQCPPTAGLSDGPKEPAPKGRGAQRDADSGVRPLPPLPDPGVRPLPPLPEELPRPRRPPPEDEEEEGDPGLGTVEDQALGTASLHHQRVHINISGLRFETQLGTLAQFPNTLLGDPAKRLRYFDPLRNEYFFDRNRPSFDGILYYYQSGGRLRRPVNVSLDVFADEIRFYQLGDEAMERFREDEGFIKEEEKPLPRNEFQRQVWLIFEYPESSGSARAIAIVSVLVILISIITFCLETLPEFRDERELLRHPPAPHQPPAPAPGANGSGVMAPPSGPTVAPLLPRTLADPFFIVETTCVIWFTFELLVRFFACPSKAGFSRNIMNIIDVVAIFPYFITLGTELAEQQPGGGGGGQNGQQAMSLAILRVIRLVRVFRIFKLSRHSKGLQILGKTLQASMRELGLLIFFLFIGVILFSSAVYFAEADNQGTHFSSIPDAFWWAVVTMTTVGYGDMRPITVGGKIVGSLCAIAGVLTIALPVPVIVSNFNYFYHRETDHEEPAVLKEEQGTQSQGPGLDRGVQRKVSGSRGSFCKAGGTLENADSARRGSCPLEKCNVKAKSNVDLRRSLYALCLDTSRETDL
T1 sequence (P22001 whole entry): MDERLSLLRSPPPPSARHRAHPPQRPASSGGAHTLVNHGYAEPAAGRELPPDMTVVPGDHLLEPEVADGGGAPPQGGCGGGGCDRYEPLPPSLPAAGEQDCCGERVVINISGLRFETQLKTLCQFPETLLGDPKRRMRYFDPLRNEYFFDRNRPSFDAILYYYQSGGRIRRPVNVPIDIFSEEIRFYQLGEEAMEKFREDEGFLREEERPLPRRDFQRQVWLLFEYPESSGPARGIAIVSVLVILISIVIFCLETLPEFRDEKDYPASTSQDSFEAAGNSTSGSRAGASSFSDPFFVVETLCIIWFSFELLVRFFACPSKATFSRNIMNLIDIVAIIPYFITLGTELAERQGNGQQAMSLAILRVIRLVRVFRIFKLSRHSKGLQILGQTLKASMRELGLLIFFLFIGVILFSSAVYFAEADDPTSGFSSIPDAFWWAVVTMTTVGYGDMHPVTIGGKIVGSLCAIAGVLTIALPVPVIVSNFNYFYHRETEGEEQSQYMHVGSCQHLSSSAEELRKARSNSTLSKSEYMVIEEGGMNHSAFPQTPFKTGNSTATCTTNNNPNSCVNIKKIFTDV

inhibition at 1 µM (human Kv1.3) [%] | inhibition at 1 µM (human Kv1.5) [%] | SMILES
71 | 59 | Fc1ccc(-c2csc3nc(Cl)cc(NCc4ccccn4)c23)cc1 [Example 21, [6-Chloro-3-(4-fluoro-phenyl)-thieno[2,3-b]pyridin-4-yl]-pyridin-2-ylmethyl-amine]
82 | 81 | OCCN(CCO)c1cc(NCc2ccccn2)c2c(-c3ccccc3)csc2n1 [Example 25, 2-((2-Hydroxy-ethyl)-{3-phenyl-4-[(pyridin-2-ylmethyl)-amino]-thieno[2,3-b]pyridin-6-yl}-amino)-ethanol]
45 | 91 | OCCN(CCO)c1cc(NCc2ccccn2)c2c(-c3ccc(F)cc3)csc2n1 [Example 26, 2-[{3-(4-Fluoro-phenyl)-4-[(pyridin-2-ylmethyl)-amino]-thieno[2,3-b]pyridin-6-yl}-(2-hydroxy-ethyl)-amino]-ethanol]
72 | 55 | OCCNc1cc(NCc2ccccn2)c2c(-c3ccc(F)cc3)csc2n1 [Example 27, 2-{3-(4-Fluoro-phenyl)-4-[(pyridin-2-ylmethyl)-amino]-thieno[2,3-b]pyridin-6-ylamino}-ethanol]
20 | 21 | Cc1cccc(CNc2cc(N(CCO)CCO)nc3scc(-c4ccc(F)cc4)c23)n1 [Example 28, 2-[{3-(4-Fluoro-phenyl)-4-[(6-methyl-pyridin-2-ylmethyl)-amino]-thieno[2,3-b]pyridin-6-yl}-(2-hydroxy-ethyl)-amino]-ethanol]

Continued, compound first:

SMILES | inhibition at 1 µM (human Kv1.3) [%] | inhibition at 1 µM (human Kv1.5) [%]
Clc1cc(NCc2ccccn2)c2c(-c3ccccc3)csc2n1 [Example 19, (6-Chloro-3-phenyl-thieno[2,3-b]pyridin-4-yl)-pyridin-2-ylmethyl-amine] | 72 | 88
Clc1cc(NCc2ccccn2)nc2scc(-c3ccccc3)c12 [Example 20, (4-Chloro-3-phenyl-thieno[2,3-b]pyridin-6-yl)-pyridin-2-ylmethyl-amine] | 99 | 93
Cc1cccc(CNc2cc(Cl)nc3scc(-c4ccc(F)cc4)c23)n1 [Example 22, [6-Chloro-3-(4-fluoro-phenyl)-thieno[2,3-b]pyridin-4-yl]-(6-methyl-pyridin-2-ylmethyl)-amine] | 78 | 95
OCCNc1cc(NCc2ccccn2)c2c(-c3ccccc3)csc2n1 [Example 24, 2-{3-Phenyl-4-[(pyridin-2-ylmethyl)-amino]-thieno[2,3-b]pyridin-6-ylamino}-ethanol] | 93 | 79
Cc1cccc(CNc2cc(NCCO)nc3scc(-c4ccc(F)cc4)c23)n1 [Example 29, 2-{3-(4-Fluoro-phenyl)-4-[(6-methyl-pyridin-2-ylmethyl)-amino]-thieno[2,3-b]pyridin-6-ylamino}-ethanol] | 62 | 31
c1ccc(-c2csc3nccc(NCc4ccccn4)c23)cc1 [Example 35, (3-Phenyl-thieno[2,3-b]pyridin-4-yl)-pyridin-2-ylmethyl-amine] | 45 | 62
Fc1ccc(-c2csc3nccc(NCc4ccccn4)c23)cc1 [Example 36, [3-(4-Fluoro-phenyl)-thieno[2,3-b]pyridin-4-yl]-pyridin-2-ylmethyl-amine] | 32 | 20
Cc1cccc(CNc2ccnc3scc(-c4ccc(F)cc4)c23)n1 [Example 37, [3-(4-Fluoro-phenyl)-thieno[2,3-b]pyridin-4-yl]-(6-methyl-pyridin-2-ylmethyl)-amine] | 30 | 36
OCCc1cc(NCc2ccccn2)c2c(-c3ccccc3)csc2n1 [Example 43, 2-{3-Phenyl-4-[(pyridin-2-ylmethyl)-amino]-thieno[2,3-b]pyridin-6-yl}-ethanol] | 20 | 94
OCC(CO)c1cc(NCc2ccccn2)c2c(-c3ccccc3)csc2n1 [Example 44, 2-{3-Phenyl-4-[(pyridin-2-ylmethyl)-amino]-thieno[2,3-b]pyridin-6-yl}-propane-1,3-diol] | 8 | 82
